US7183269B2, “Synergistic compositions for the selective control of tumor tissue” (priority 1997, dated 2007)

How the values were obtained:
[1] = tested on: RT112; assay: Cell Death Detection ELISA (apoptosis kit) with RT112 as a function of pH; format: cell-based, human
Method: The measurements were carried out using a “Cell Death Detection ELISA” kit, Cat. No. 1774 425 commercially available from Boehringer (Mannheim). The process instructions are additionally supplied by Boehringer.
The OD value corresponds to the cell death.
The results of the experiments are summarized in FIGS. 1 to 3, which correspond to Tables 1 to 3. In the figures, the cell death is recorded in a ELISA (apoptosis kit) with RT112 as a function of the pH. That is to say the data on the Y axis of the figures is a measure of the cell death; the pH of the cells is indicated on the X axis. FIG. 1 and FIG. 2 show experiments in which individual compounds were employed. […] It stands out that at a pH of between 6.5 and 7.0 the compositions according to the invention cause a cell death which is preferably in the vicinity of or above the CAM value, which virtually corresponds to a complete destruction of the tumor tissue.
The apoptosis-inducing substance CAM used in the experiments is camptothecin (CAM value). In the experiments, positive control means that instead of the apoptotic cancer cells induced by the substances a histone-DNA complex with known detection sensitivity is employed for detection, i.e. an artificial apoptosis product is provided. In the experiments, negative control means that the same detection procedure is carried out, but without addition of substances or substance mixtures.
(§1) The human bladder tumor cell line. RT112 or the human chronic myeloid leukemia cell line K562 were purchased from DKFZ Tumorzell—und datenbank (Institut für experimentelle Pathologie, Heidelberg, FRG) or DSM (Deutsche Sammlung von Mikroorganismen und Zellkulturen GmbH, Braunschweig, FRG), respectively. The cells were cultured in HEPES-buffered RPMI 1640 (SIGMA, Deisenhofen, FRG) supplemented with 2 mM L-glutamine (BIOCHROM, Berlin, FRG), 1% NEAE (BIOCHROM), 10% heat-inactivated fetal calf serum (BIOCHROM), 100 U/ml penicillin and 50 μg/ml streptomycin (BIOCHROM) at 37° C. and 5% CO2. Only mycoplasma-free cell cultures were used; this was frequently tested using a specific detection kit (BOEHRINGER MANNHEIM, Mannheim, FRG).

[2] = tested on: RT112 tumor cells (bladder carcinoma); assay: [3H]-TdR incorporation assay (proliferation); format: cell-based, human; settings: in dependence of extracellular pH, FIG. 4
Text: The anticancer activity of salicylate combinations can also be examined by in vitro experiments with tumor cell lines. As a relevant criterion of toxic effects on cancer cells the proliferation rate can be considered. The proliferation rate effected by salicylate combinatioins can be measured in dependence of the extracellular pH-milieu. (Details for cell cultures, see Materials & Methods below.)
The effect of salicylate combinations on the proliferation of RT112 tumor cells is quantitated by the measurement of incorporated tritiated thymidine ([^3H]-TdR) into the cellular DNA of the cancer cells by liquid scintillation counting (LSC). (Method details, see Material & Methods below.)
as §1
The influence of cytotoxic molecules on the proliferation of RT112 tumor cells was quantitated by the measurement of the incorporated tritiated thymidine ([^3H]-TdR) into the cellular DNA of the tumor cells by liquid scintillation counting (LSC). In brief, RT112 cells were harvested, washed twice and resuspended in culture media (2.5×10^5/ml). 100 μl/well of the RT112 cell suspension were seeded into 96 well microtiter plates (BECTON DICKINSON) and incubated over night at 37° C. and 5% CO2. The supernatant was replaced by 90 μl pH-adjusted culture medium (pH 6.0–7.4) and 10 μl of the solution of preferred substances or 100 μl/well pH-adjusted culture medium alone (control). The cells were incubated for various time periods at 37° C. and 5% CO2. Thereafter, cells were washed twice, reincubated in fresh pH-adjusted culture medium and pulsed for 24 h by the addition of 23.125 kBq [^3H]TdR/well (925 kBq/ml; AMERSHAM, Braunschweig, FRG). After freezing and thawing, radioactive DNA of the cultures were transferred to glass fiber filters with an automatic cell harvester (PHARMACIA). The incorporated radioactivity was measured in a liquid scintillation counter (PHARMACIA).

[3] = Table 2, measurement after 35 minutes, 15 mM, initial pH 6.0
[4] = Table 2, measurement after 35 minutes, 15 mM, initial pH 6.5
[5] = Table 2, measurement after 35 minutes, 15 mM, initial pH 7.0
[6] = Table 2, measurement after 35 minutes, 15 mM, initial pH 7.4
[7] = Table 2, measurement after 35 minutes, 10 mM, initial pH 6.0
[8] = Table 2, measurement after 35 minutes, 10 mM, initial pH 6.5
[9] = Table 2, measurement after 35 minutes, 10 mM, initial pH 7.0
[10] = Table 2, measurement after 35 minutes, 10 mM, initial pH 7.4

CC[C@@]1(O)C(=O)OCc2c1cc1n(c2=O)Cc2cc3ccccc3nc2-1 [CAM, camptothecin]
OD (405–490 nm) ([1]; Table 1, measurement after 35 minutes, 800 ng/ml, initial pH 6.0): 0.818 | OD (405–490 nm) ([1]; Table 1, measurement after 35 minutes, 800 ng/ml, initial pH 6.5): 3.037 | OD (405–490 nm) ([1]; Table 1, measurement after 35 minutes, 800 ng/ml, initial pH 7.0): 2.725 | OD (405–490 nm) ([1]; Table 1, measurement after 35 minutes, 800 ng/ml, initial pH 7.4): 2.416 | OD (405–490 nm) ([1]; Table 2, measurement after 35 minutes, 160 ng/ml, initial pH 6.0): 0.344 | OD (405–490 nm) ([1]; Table 2, measurement after 35 minutes, 160 ng/ml, initial pH 6.5): 0.711 | OD (405–490 nm) ([1]; Table 2, measurement after 35 minutes, 160 ng/ml, initial pH 7.0): 1.220 | OD (405–490 nm) ([1]; Table 2, measurement after 35 minutes, 160 ng/ml, initial pH 7.4): 1.923 | OD (405–490 nm) ([1]; Table 3, measurement after 20 minutes, 800 ng/ml, initial pH 6.0): 1.681 | OD (405–490 nm) ([1]; Table 3, measurement after 20 minutes, 800 ng/ml, initial pH 6.5): 1.708 | OD (405–490 nm) ([1]; Table 3, measurement after 20 minutes, 800 ng/ml, initial pH 7.0): 1.791 | OD (405–490 nm) ([1]; Table 3, measurement after 20 minutes, 800 ng/ml, initial pH 7.4): 2.217

O=C(O)c1c(O)cc(O)cc1O [DHSA, 2,4,6-trihydroxybenzoic acid]
effect on the proliferation rate [2]: no effect or minor effect

O=C(O)c1cc(-c2ccc(F)cc2F)ccc1O [Diflu, 5-(2,4-difluoro-phenyl)salicylic acid]
effect on the proliferation rate [2]: no effect or minor effect

Nc1ccc(C(=O)O)c(O)c1 [Substance 58a, 2-hydroxy-4-aminobenzoic acid]
OD (405–490 nm) [1, 3]: 0.320 | OD (405–490 nm) [1, 4]: 0.282 | OD (405–490 nm) [1, 5]: 0.574 | OD (405–490 nm) [1, 6]: 1.835 | effect on the proliferation rate [2]: no effect or minor effect

CC(=O)Oc1ccccc1C(=O)O [Substance 121, acetylsalicylic acid (2-acetoxybenzoic acid)]
OD (405–490 nm) [1, 7]: 1.282 | OD (405–490 nm) [1, 8]: 0.163 | OD (405–490 nm) [1, 9]: 0.413 | OD (405–490 nm) [1, 10]: 1.508 | effect on the proliferation rate [2]: no effect or minor effect

CC(=O)Oc1ccc(C(=O)O)c(OC(C)=O)c1 [Substance 132, 2,4-diacetoxybenzoic acid]
OD (405–490 nm) [1, 7]: 2.856 | OD (405–490 nm) [1, 8]: 0.183 | OD (405–490 nm) [1, 9]: 0.088 | OD (405–490 nm) [1, 10]: 0.502 | OD (405–490 nm) ([1]; Table 3, measurement after 20 minutes, 5 mM, initial pH 6.0): 0.407 | OD (405–490 nm) ([1]; Table 3, measurement after 20 minutes, 5 mM, initial pH 6.5): 0.371 | OD (405–490 nm) ([1]; Table 3, measurement after 20 minutes, 5 mM, initial pH 7.0): 0.422 | OD (405–490 nm) ([1]; Table 3, measurement after 20 minutes, 5 mM, initial pH 7.4): 0.916

O=C(O)c1c(O)cccc1O [Substance 136, 2,6-dihydroxybenzoic acid]
OD (405–490 nm) ([1]; Table 1, measurement after 35 minutes, 5 mM, initial pH 6.0): 0.187 | OD (405–490 nm) ([1]; Table 1, measurement after 35 minutes, 5 mM, initial pH 6.5): 0.918 | OD (405–490 nm) ([1]; Table 1, measurement after 35 minutes, 5 mM, initial pH 7.0): 0.321 | OD (405–490 nm) ([1]; Table 1, measurement after 35 minutes, 5 mM, initial pH 7.4): 0.382 | OD (405–490 nm) ([1]; Table 1, measurement after 35 minutes, 7 mM, initial pH 6.0): 0.221 | OD (405–490 nm) ([1]; Table 1, measurement after 35 minutes, 7 mM, initial pH 6.5): 1.287 | OD (405–490 nm) ([1]; Table 1, measurement after 35 minutes, 7 mM, initial pH 7.0): 0.524 | OD (405–490 nm) ([1]; Table 1, measurement after 35 minutes, 7 mM, initial pH 7.4): 0.816 | effect on the proliferation rate [2]: no effect or minor effect

COc1ccc(C(=O)O)c(OC)c1 [Substance 188, 2,4-dimethoxybenzoic acid]
OD (405–490 nm) [1, 3]: 0.256 | OD (405–490 nm) [1, 4]: 0.309 | OD (405–490 nm) [1, 5]: 0.502 | OD (405–490 nm) [1, 6]: 1.854
